Common to all, as to assay type: physicochemical
The nature of data set [1]: Xenon lamp light-resistance test of the printed images. To be noted: ink with 6 parts dye, ink-jet printed on glossy photo paper; xenon lamp 0.36 W/m^2, 50 h, 60% RH, 24° C.; grade by color difference ΔE. The procedure:
(§1) The mixture product M1, M2 or M3 and the pure compound obtained by separation according to the embodiments 1-3 are used as the magenta colorant, and the ink composition is prepared according to the formula shown in following table 1, and the magenta aqueous ink composition is obtained by filtering with a 0.45 μm membrane filter, wherein triethanolamine is added to adjust the pH value of the ink composition to 8-10, and deionized water is added to make the total amount reach 100 parts-by-weight (PBW).
(§2) Use an ink-jet printer (Epson 270 manufactured by Epson Company), glossy photo paper (Epson) and the above described ink compositions for ink-jet printing.
(1) Xenon Lamp Light-Resistance Test of the Printed Images
Irradiate the printed glossy photo paper manufactured by Canon and Epson with Xenon-lamp Weathering Test Chamber ZG-P (manufactured by China Surui Company) at 60% RH and 24° C. with illuminance of 0.36 W/m^2 for 50 h to test the color difference (ΔE) before and after the test. The color difference (ΔE) is calculated from the differences of values of L*, a*, b* before and after the test in the above described color measurement system (Unterlab) by the followings formula: ΔE=((difference of L*)^2+(difference of a*)^2+(difference of b*)^2)^1/2.
Three grades will be divided for the evaluation based on the following benchmark: […]

The nature of data set [2]: Ozone gas resistance of the printed images. To be noted: ink with 6 parts dye, printed on glossy photo paper; 40 ppm ozone, 60% RH, 24° C.; grade by color difference ΔE. The procedure:
Use an ink-jet printer (Epson 270 manufactured by Epson Company), glossy photo paper (Epson) and the above described ink compositions for ink-jet printing. (2) Ozone Gas Resistance of the Printed Images Place the printed images in the Ozone Weathering Test Chamber (manufactured by China Surui Company) at 60% RH, 24° C. and 40 ppm ozone. Calculated the color difference (ΔE) before and after the test by the same method as described in (1) above and evaluate it in 3 grades based on the following benchmark: ΔE<10 ∘ ΔE<20 Δ ΔE>20 x

Data set [3] can be described thus: Moisture resistance of the printed images. The arrangement: key: ∘: No bleeding; Δ: Slight bleeding; x: Notable bleeding. To be noted: printed images at 50° C. and 90% RH for 168 h; bleeding judged by bare eyes. The method, then:
as §1, §2
(3) Moisture Resistance of the Printed Images
Place the printed images in the Constant Temperature and Humidity Chamber (manufactured by China Surui Company) at 50° C. and 90% RH for 168 h; judge the bleeding of the ink by bare eyes before and after the test and evaluate it in 3 grades based on the following benchmark: […]

Data set [4] is described as follows: Evaluation of the dye solubility in water. To be noted: grade by g/100 g water. An excerpt:
(D) Evaluation of the Dye Solubility in Water (g/100 g Water)
Solubility of the dye in water >30 ∘
Solubility of the dye in water >15-20 Δ
Solubility of the dye in water <15 x

Data set [5] can be described thus: Evaluation of long-term stability of the dye in aqueous solvent system. The arrangement: key: ∘: No precipitation; Δ: Slight precipitation; x: Notable precipitation. To be noted: 20 parts dye, 70 parts water, 10 parts ethylene glycol; 50° C. for 7d, then 0° C. for 7d; filtered, precipitation graded. The procedure:
(E) Evaluation of Long-Term Stability of the Dye in Aqueous Solvent System
Heat and dissolve the system of 20 parts of dyes, 70 parts of water and 10 parts of ethylene glycol; after the solution cools down, store it airtight at a constant temperature of 50° C. for 7d; cool it down and store it at 0° C. for 7d; filter the solution and evaluate it in 3 grades based on the following benchmark: […]

Structures are written as SMILES.

Take `O=C(CCCS(=O)(=O)c1cc(S(=O)(=O)O)c(Nc2cc(S(=O)(=O)O)c3[nH]c(=O)c(C(=O)c4cccc(S(=O)(=O)O)c4)c4c3c2C(=O)c2ccccc2-4)c(S(=O)(=O)O)c1)c1cccc(S(=O)(=O)O)c1` [Dp4]: the “Ultraviolet resistance of ink printed images” value (“Ultraviolet resistance” for short) in data set [1] was “∘ (ΔE<10)”. Besides, the “Ozone resistance of ink printed images” value in data set [2] is “∘ (ΔE<10)”. Further, in data set [3], the “Water resistance of ink printed images” value is “∘”. Moreover, the “Solubility of dye in water” value in data set [4] is listed as “∘ (Solubility of the dye in water >30)”. In data set [5], the “Long-term stability of the dye in aqueous solvent system” value (“Long-term stability of the dye” for short) is given as “∘”.
Regarding `O=C(O)CCCS(=O)(=O)c1cc(S(=O)(=O)O)c(Nc2cc(S(=O)(=O)O)c3[nH]c(=O)c(C(=O)c4cccc(S(=O)(=O)O)c4)c4c3c2C(=O)c2ccccc2-4)c(S(=O)(=O)O)c1` [Dp2], the “Ultraviolet resistance” value in data set [1] is “∘ (ΔE<10)”. The “Ozone resistance of ink printed images” value in data set [2] is recorded as “∘ (ΔE<10)”. Also, in data set [3], the “Water resistance of ink printed images” value is “∘”. Further, in data set [4], the “Solubility of dye in water” value is reported as “∘ (Solubility of the dye in water >30)”. The “Long-term stability of the dye” value in data set [5] is listed as “∘”.
As to `O=C(c1cccc(S(=O)(=O)O)c1)c1c2c3c(c(Nc4c(S(=O)(=O)O)cc(S(=O)(=O)CCC5C(=O)c6ccccc6C5=O)cc4S(=O)(=O)O)cc(S(=O)(=O)O)c3[nH]c1=O)C(=O)c1ccccc1-2` [Dp8], the “Ultraviolet resistance” value in data set [1] is given as “∘ (ΔE<10)”. Moreover, the “Ozone resistance of ink printed images” value in data set [2] was “∘ (ΔE<10)”. Further, the “Water resistance of ink printed images” value in data set [3] is “∘”. Moreover, the “Solubility of dye in water” value in data set [4] was “∘ (Solubility of the dye in water >30)”. Besides, in data set [5], the “Long-term stability of the dye” value is reported as “∘”.
With `O=S(=O)([O-])c1cc(Nc2nc(Nc3ccc(/C=C/c4ccc(Nc5nc(Nc6cc(S(=O)(=O)[O-])cc7cc(S(=O)(=O)[O-])c(N=Nc8ccccc8)c(O)c67)nc(N6CCOCC6)n5)cc4S(=O)(=O)[O-])c(S(=O)(=O)[O-])c3)nc(N3CCOCC3)n2)c2c(O)c(N=Nc3ccccc3)c(S(=O)(=O)[O-])cc2c1.[Na+].[Na+].[Na+].[Na+].[Na+].[Na+]` [C.I. direct red 227, reference compound], the “Ultraviolet resistance” value in data set [1] was “x (ΔE>20)”. Also, in data set [2], the “Ozone resistance of ink printed images” value is reported as “x (ΔE>20)”. The “Water resistance of ink printed images” value in data set [3] is listed as “Δ”. For the same compound, the “Solubility of dye in water” value in data set [4] is listed as “x (Solubility of the dye in water <15)”. Moreover, the “Long-term stability of the dye” value in data set [5] is “Δ”.
`O=C(c1cccc(S(=O)(=O)O)c1)c1c2c3c(c(Nc4c(S(=O)(=O)O)cc(S(=O)(=O)CCC5C(=O)c6ccc(S(=O)(=O)O)cc6C5=O)cc4S(=O)(=O)O)cc(S(=O)(=O)O)c3[nH]c1=O)C(=O)c1ccccc1-2` (stereo not shown) [Dp10]: the “Ultraviolet resistance” value in data set [1] was “∘ (ΔE<10)”. For the same compound, in data set [2], the “Ozone resistance of ink printed images” value was “∘ (ΔE<10)”. Besides, the “Water resistance of ink printed images” value in data set [3] was “∘”. The “Solubility of dye in water” value in data set [4] is “∘ (Solubility of the dye in water >30)”. Besides, the “Long-term stability of the dye” value in data set [5] is given as “∘”.
